Assay results published in patent publication US20140275108A1, “NOVEL BENZENESULFONAMIDE COMPOUNDS, METHOD FOR SYNTHESIZING SAME, AND USE THEREOF IN MEDICINE AS WELL AS IN COSMETICS” (GALDERMA RESEARCH & DEVELOPMENT, priority 2013, published 2014).
Read-outs that look alike come from different tables or passages of the source.

Experiments:
TACE enzyme = TACE enzyme (Homo sapiens, UniProt P78536); assay: Enzymatic assay for TACE inhibition (fluorescent substrate); format: biochemical
other MMPs = assay: Inhibition of other MMPs (data not shown); format: biochemical
Source text: (§1) Several compounds were dose-response tested on TACE and MMP-1, MMP-3, and MMP-12 according to the same protocol as that described above.

MMP-12 = MMP-12 (Homo sapiens, UniProt P39900); assay: Inhibition of MMPs, MMP-12; format: biochemical; conditions: Table 3, Example 30
Source text: as §1

TNFα = assay: Mouse ear edema model, TNFα secretion by ear skin cells; format: in vivo, Balb/c mouse; conditions: ear tissue biopsy, topical Day 1 to Day 7; FIG. 2A
Experimental: (§2) P. acnes stimulates the production of inflammatory cytokines, such as TNFα and interleukins. In this Example, the mouse ear edema model was used to investigate inflammation induced by P. acnes. This is a chronic inflammation model involving intense innate and adaptive immunity. The thickness of the ear is measured each day to determine the amount of swelling caused by P. acnes. The amount of TNFα and IL-6 secreted is determined.
(§3) After one intradermal injection of live P. acnes on Day 0, each of the following preparations was topically applied once a day on the ear of a Balb/c mouse over the course of 7 days (from Day 1 to Day 7). […]
(§4) Preparations 1-3 served as controls for comparison with preparations 4-7. […] The thickness of the ear was measured each day with a caliper from day 1 until day 8. The amount of TNFα and IL-6 secreted by the skin cells was determined using tissue biopsy samples from the mouse ear. TNF-α and Il-6 were measured using the mouse BD™ Cytometric Bead Array Flex (BD Bioscience, Dosage by FacsArray).

[1] = system: edema induced by P. acnes; assay: Mouse ear edema model, cutaneous inflammation induced by P. acnes (ear thickness); format: in vivo, Balb/c mouse; conditions: topical on mouse ear, Day 1 to Day 7, after intradermal live P. acnes; Compound D 0.1%, 0.3%, 0.6% once a day, 0.6% twice a day; CD0153F 0.01% once a day; FIG. 1
Experimental: as §2, §3, §4

IL-6 = assay: Mouse ear edema model, IL-6 secretion by ear skin cells; format: in vivo, Balb/c mouse; conditions: ear tissue biopsy, topical Day 1 to Day 7; FIG. 2B
Experimental: as §2, §3, §4

MMP-3 = molecular target: T1, MMP-3 (Homo sapiens, UniProt P08254); assay: Selectivity assay, MMP-3; format: biochemical; conditions: Table 3, Example 30
T1 construct: purchased Calbiochem
Source text: The enzymes are purchased from Calbiochem.
as §1

MMP-1 = molecular target: T2, MMP-1 (Homo sapiens, UniProt P03956); assay: Selectivity assay, MMP-1; format: biochemical; conditions: Table 3, Example 30
T2 construct: purchased Calbiochem
T2 sequence (P03956 100-469): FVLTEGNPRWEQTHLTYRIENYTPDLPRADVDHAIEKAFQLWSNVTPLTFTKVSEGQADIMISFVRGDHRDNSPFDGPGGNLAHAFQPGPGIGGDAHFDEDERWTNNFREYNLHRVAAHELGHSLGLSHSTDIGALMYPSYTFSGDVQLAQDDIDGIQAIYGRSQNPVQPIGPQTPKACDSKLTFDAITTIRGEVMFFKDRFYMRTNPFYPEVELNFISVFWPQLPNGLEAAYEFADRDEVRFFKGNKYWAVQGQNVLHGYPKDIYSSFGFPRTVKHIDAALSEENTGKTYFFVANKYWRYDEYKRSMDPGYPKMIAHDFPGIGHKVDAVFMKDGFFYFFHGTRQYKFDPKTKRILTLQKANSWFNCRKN

[2] = Table 3, Example 30, read-out: TACE = ADAM 17 (IC50 nM)

Chain of TACE enzyme (P78536 215-477): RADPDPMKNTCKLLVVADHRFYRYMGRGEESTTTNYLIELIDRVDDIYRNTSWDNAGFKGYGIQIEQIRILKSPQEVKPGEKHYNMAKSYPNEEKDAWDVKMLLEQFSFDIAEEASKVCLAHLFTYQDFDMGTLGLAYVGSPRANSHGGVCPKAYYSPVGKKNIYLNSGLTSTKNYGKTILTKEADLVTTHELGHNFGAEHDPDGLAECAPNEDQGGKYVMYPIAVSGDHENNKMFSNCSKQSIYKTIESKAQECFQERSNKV
Chain of MMP-12 (P39900 106-470): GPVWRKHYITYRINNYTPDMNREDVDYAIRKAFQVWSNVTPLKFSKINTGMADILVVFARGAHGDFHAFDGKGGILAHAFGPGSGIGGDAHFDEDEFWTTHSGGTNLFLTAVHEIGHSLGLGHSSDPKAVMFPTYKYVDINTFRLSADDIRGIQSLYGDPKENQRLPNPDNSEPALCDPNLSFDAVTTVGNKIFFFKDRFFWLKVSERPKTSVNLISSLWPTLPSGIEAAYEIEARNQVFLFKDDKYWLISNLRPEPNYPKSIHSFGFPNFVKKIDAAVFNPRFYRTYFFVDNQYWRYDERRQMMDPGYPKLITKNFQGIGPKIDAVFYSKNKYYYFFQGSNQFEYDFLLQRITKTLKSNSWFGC
T1 sequence (P08254 100-477): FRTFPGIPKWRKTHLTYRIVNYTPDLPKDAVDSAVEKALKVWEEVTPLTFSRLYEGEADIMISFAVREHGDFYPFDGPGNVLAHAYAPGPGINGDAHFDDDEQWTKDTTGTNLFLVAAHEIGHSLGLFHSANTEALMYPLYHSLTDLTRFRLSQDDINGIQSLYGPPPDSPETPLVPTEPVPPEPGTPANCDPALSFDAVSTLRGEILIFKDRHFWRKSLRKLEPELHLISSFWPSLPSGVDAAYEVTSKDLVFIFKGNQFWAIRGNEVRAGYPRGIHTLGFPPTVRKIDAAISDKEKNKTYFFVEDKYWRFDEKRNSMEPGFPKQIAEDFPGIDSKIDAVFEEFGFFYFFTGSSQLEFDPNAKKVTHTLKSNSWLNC

Question: What does the source list for `Cc1cc(COc2ccc(S(=O)(=O)NC[C@@H](C(=O)NO)N3CCOCC3)cc2)c2ccccc2n1` [B]?
Answer: IC50 (TACE enzyme; [2]): 51 nM; effect on other MMPs (other MMPs): no effect; IC50 (MMP-12): 226 nM

Question: Which results are given for `CCCCC(=O)O[C@]1(C(=O)CO)[C@@H](C)C[C@H]2[C@@H]3CCC4=CC(=O)C=C[C@]4(C)[C@@]3(F)[C@@H](O)C[C@@]21C` [CD0153F, betamethasone valerate, reference compound]?
Answer: secretion of TNFα induced by P. acnes (TNFα): inhibiting TNFα secretion; inhibition of edema (ear swelling) induced by P. acnes [1]: inhibition of inflammation

Question: `Cc1cc(COc2ccc(S(=O)(=O)NC[C@@H](C(=O)NO)N3CCC(Cc4ccccc4)CC3)cc2)c2ccccc2n1` [C] was tested. Which IC50 (TACE enzyme; [2]) did it give?
Answer: 62 nM

Question: Which results are given for `Cc1cc(COc2ccc(S(=O)(=O)NC[C@@H](C(=O)NO)N3CCCCC3)cc2)c2ccccc2n1` [Compound A]?
Answer: effect on other MMPs (other MMPs): no effect; IC50 (MMP-12): 977 nM

Question: How did the “secretion of TNFα induced by P. acnes” value (TNFα) turn out when `Cc1cc(COc2ccc(S(=O)(=O)NC[C@@H](C(=O)NO)N3CCC(S(=O)(=O)C(C)C)CC3)cc2)c2ccccc2n1` [Compound D] was run?
Answer: greatly reduced

Question: What about the IC50 (TACE enzyme; [2]) of the same molecule?
Answer: 33 nM

Question: What about the “secretion of IL-6 induced by P. acnes” value (IL-6) of the same molecule?
Answer: moderately reduced

Question: What about the IC50 (MMP-3) of the same molecule?
Answer: 574 nM

Question: What about the “inhibition of edema (ear swelling) induced by P. acnes” value [1] of the same molecule?
Answer: did not inhibit the edema

Question: What about the IC50 (MMP-1) of the same molecule?
Answer: 969 nM

Question: How did the “% TACE inhibition at 10 μM” value (TACE enzyme) turn out when `CC#CCOc1ccc(S(=O)(=O)N(C)CC(C(=O)NO)N2CCN(S(C)(=O)=O)CC2)cc1` (centres unmarked) [Example 1, 3-[(4-but-2-ynyloxybenzenesulfonyl)methylamino]-N-hydroxy-2-(4-methanesulfonylpiperazin-1-yl)propionamide] was run?
Answer: 100%

Question: For `CN(C[C@@H](C(=O)NO)N1CCN(S(C)(=O)=O)CC1)S(=O)(=O)c1ccc(OCc2ccccc2)cc1` [Example 4, (S)-3-[(4-Benzyloxybenzenesulfonyl)methylamino]-N-hydroxy-2-(4-methanesulfonylpiperazin-1-yl)propionamide], which “% TACE inhibition at 10 μM” value (TACE enzyme) is on record?
Answer: 95%

Question: And the IC50 (TACE enzyme; Table 1, read-out: IC50 - TACE)?
Answer: 497 nM
